Test results published in patent US8742106B2 (Novartis AG, priority 2009, dated 2014).

Columns and labels:
human orexin 1 receptors [1] = molecular target: T1, human orexin 1 receptors (Homo sapiens (Human), UniProt O43613); assay: Radioligand Binding Assay II ([3H]-SB649868 competition, cell membranes); details: read-out: binding II hOx1R Kd
Protocol: Radioligand Binding Assay II
For crude cell membrane preparations, cells (CHO, Chinese hamster ovary or HEK, human embryonic kidney) expressing human orexin 1 or human orexin 2 receptors, were washed with HEPES (10 mM, pH 7.5), scraped off the culture plates with the same buffer, and centrifuged at 4° C. for 5 min at 2500×g. The cell pellet was either stored at −80° C. or used directly. Before the experiments, cell membranes were re-suspended in binding assay buffer (10 mM HEPES, 0.5% (w/v) bovine serum albumin, pH 7.5) by homogenisation with a Polytron homogeniser at 50 Hz for 20 s. Cell membranes were also used as made available by commercial providers.
Bound radioactivity was measured, and data were analysed with the program XLFIT or Graphpad Prism. Protein concentration was determined according to the Bradford/BioRad Protein Assay Kit.
In competition experiments, cell homogenates (150 μl) were incubated in assay buffer (10 mM HEPES, pH 7.5, 0.5% (w/v) bovine serum albumin, 5 mM MgCl2, 1 mM CaCl2, and tween 0.05%) for 1 h at room temperature with about 1 nM of the radioligand [^3H]-SB649868, 66 Ci/mmole, 50 μl), and with various concentrations of compounds of the invention (50 μl) in triplicates; non-specific binding was determined in the presence of almorexant (10 μM). Reactions were terminated by vacuum filtration, 3 washes of ice cold wash buffer (Tris-HCl pH 7.4/10 mM, with NaCl 154 mM). Competition data is expressed in Table 2 as Kd [μM].

human orexin 1 receptors [2] = molecular target: T1, human orexin 1 receptors; assay: Calcium Accumulation in Cells (FLIPR), antagonism of orexin A; assay type: cell-based; details: for Ki: antagonism of orexin A, Cheng-Prusoff corrected, read-out: FLIPR hOx1R Ki; for inhibition at 10 µM: measured at a concentration of 10 μM of compound, read-out: FLIPR hOx1R % inhibition value
human orexin 2 receptors = human orexin 2 receptors (Homo sapiens (Human), UniProt O43614); assay: as above; assay type: cell-based; details: for inhibition at 10 µM: measured at a concentration of 10 μM of compound, read-out: FLIPR hOx2R % inhibition value; for Ki: antagonism of orexin A, Cheng-Prusoff corrected, read-out: FLIPR hOx2R Ki
Sequence of human orexin 2 receptors (O43614 whole entry): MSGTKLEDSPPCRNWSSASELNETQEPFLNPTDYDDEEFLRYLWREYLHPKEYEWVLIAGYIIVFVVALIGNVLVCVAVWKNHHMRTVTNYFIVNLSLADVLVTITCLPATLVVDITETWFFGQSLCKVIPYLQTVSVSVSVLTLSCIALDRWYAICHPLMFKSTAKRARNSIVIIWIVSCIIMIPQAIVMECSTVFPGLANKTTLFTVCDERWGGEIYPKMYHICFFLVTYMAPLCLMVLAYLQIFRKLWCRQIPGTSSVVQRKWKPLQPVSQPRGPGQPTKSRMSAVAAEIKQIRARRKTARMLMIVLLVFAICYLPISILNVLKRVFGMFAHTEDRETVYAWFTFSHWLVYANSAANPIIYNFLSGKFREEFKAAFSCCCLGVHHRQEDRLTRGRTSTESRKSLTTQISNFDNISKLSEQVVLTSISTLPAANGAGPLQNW
How it was run: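 Cells expressing human orexin 2 receptor, loaded with Fluo4-AM (2 μM) plus probenecid (0.1 mM) for 1 h, then washed. Antagonism read as inhibition of the orexin A calcium fluorescence signal (FLIPR).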

T1 sequence (O43613 whole entry): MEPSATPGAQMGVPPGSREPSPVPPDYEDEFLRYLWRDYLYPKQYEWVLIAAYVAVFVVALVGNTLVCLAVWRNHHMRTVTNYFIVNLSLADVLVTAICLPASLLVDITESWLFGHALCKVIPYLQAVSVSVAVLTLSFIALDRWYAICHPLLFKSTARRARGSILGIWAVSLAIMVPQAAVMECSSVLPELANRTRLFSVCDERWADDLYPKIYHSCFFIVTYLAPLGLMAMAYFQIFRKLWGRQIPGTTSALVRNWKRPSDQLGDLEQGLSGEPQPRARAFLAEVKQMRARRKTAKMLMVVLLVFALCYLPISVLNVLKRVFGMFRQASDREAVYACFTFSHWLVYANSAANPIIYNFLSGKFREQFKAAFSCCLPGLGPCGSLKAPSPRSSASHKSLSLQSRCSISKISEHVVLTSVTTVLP

For `COc1ccc2c(c1)CCC2NC(=O)COc1cc(C)c2c(C3CC3)nn(C)c2n1` (stereo not shown) [Example 6.3, 2-(3-cyclopropyl-1,4-dimethyl-1H-pyrazolo[3,4-b]pyridin-6-yloxy)-N-(5-methoxy-2,3-dihydro-1H-inden-1-yl)acetamide], the Kd (human orexin 1 receptors [1]) was 101 nM and the Ki (human orexin 1 receptors [2]) was 192 nM.
With `COc1ccc2c(c1)CC[C@@H]2NC(=O)COc1cc(C)c2c(C3CC3)nn(C)c2n1` [Example 6.5, (S)-2-(3-cyclopropyl-1,4-dimethyl-1H-pyrazolo[3,4-b]pyridin-6-yloxy)-N-(5-methoxy-2,3-dihydro-1H-inden-1-yl)acetamide] the Kd (human orexin 1 receptors [1]) was 67 nM and the Ki (human orexin 1 receptors [2]) was 152 nM.
Work on `Cc1cc(OCC(=O)NCc2cccc3cnn(C)c23)nc2c1c(C1CC1)nn2C` [Example 7.10, 2-(3-cyclopropyl-1,4-dimethyl-1H-pyrazolo[3,4-b]pyridin-6-yloxy)-N-((1-methyl-1H-indazol-7-yl)methyl)acetamide] yielded an inhibition at 10 µM (human orexin 1 receptors [2]) of 34% and an inhibition at 10 µM (human orexin 2 receptors) of 40%.
`COc1cccc([C@H](C)NC(=O)COc2cc(C)c3c(C4CC4)nn(C)c3n2)c1` [Example 7.12, (S)-2-(3-cyclopropyl-1,4-dimethyl-1H-pyrazolo[3,4-b]pyridin-6-yloxy)-N-(1-(3-methoxyphenyl)ethyl)acetamide] was tested, and the Ki (human orexin 1 receptors [2]) was 736 nM and the inhibition at 10 µM (human orexin 2 receptors) was 43%.
For `COc1ccccc1[C@H](C)NC(=O)COc1cc(C)c2c(C3CC3)nn(C)c2n1` [Example 7.13, (S)-2-(3-cyclopropyl-1,4-dimethyl-1H-pyrazolo[3,4-b]pyridin-6-yloxy)-N-(1-(2-methoxyphenyl)ethyl)acetamide], the Ki (human orexin 1 receptors [2]) was 1540 nM and the Ki (human orexin 2 receptors) was 450 nM.
Compound `Cc1cc(OCC(=O)NCc2ccc(Cl)nc2)nc2c1c(C1CC1)nn2C` [Example 7.14, N-((6-chloropyridin-3-yl)methyl)-2-(3-cyclopropyl-1,4-dimethyl-1H-pyrazolo[3,4-b]pyridin-6-yloxy)acetamide] has an inhibition at 10 µM (human orexin 1 receptors [2]) of 31% and an inhibition at 10 µM (human orexin 2 receptors) of 20%.
Compound `Cc1cc(OCC(=O)NCc2cccc3[nH]ncc23)nc2c1c(C1CC1)nn2C` [Example 7.15, N-((1H-indazol-4-yl)methyl)-2-(3-cyclopropyl-1,4-dimethyl-1H-pyrazolo[3,4-b]pyridin-6-yloxy)acetamide] has an inhibition at 10 µM (human orexin 1 receptors [2]) of 26% and an inhibition at 10 µM (human orexin 2 receptors) of 18%.
`COc1ccc(CNC(=O)COc2cc(C)c3c(C4CC4)nn(C)c3n2)cc1Cl` [Example 7.16, N-(3-chloro-4-methoxybenzyl)-2-(3-cyclopropyl-1,4-dimethyl-1H-pyrazolo[3,4-b]pyridin-6-yloxy)acetamide] gave a Ki (human orexin 1 receptors [2]) of 3630 nM and a Ki (human orexin 2 receptors) of 1030 nM.
`Cc1cc(OCC(=O)NC(C)c2ccc3[nH]ccc3c2)nc2c1c(C1CC1)nn2C` (stereo not shown) [Example 7.17, N-(1-(1H-indol-5-yl)ethyl)-2-(3-cyclopropyl-1,4-dimethyl-1H-pyrazolo[3,4-b]pyridin-6-yloxy)acetamide] gave a Ki (human orexin 1 receptors [2]) of 414 nM and a Ki (human orexin 2 receptors) of 94 nM.
For `Cc1cccnc1CNC(=O)COc1cc(C)c2c(C3CC3)nn(C)c2n1` [Example 7.18, 2-(3-cyclopropyl-1,4-dimethyl-1H-pyrazolo[3,4-b]pyridin-6-yloxy)-N-((3-methylpyridin-2-yl)methyl)acetamide], the inhibition at 10 µM (human orexin 1 receptors [2]) was < 10% and the inhibition at 10 µM (human orexin 2 receptors) was 11%.
Compound `COc1ccc(C(C)NC(=O)COc2cc(C)c3c(C4CC4)nn(C)c3n2)cc1F` (stereo not shown) [Example 7.19, 2-(3-cyclopropyl-1,4-dimethyl-1H-pyrazolo[3,4-b]pyridin-6-yloxy)-N-(1-(3-fluoro-4-methoxy-phenyl)ethyl)acetamide] has a Ki (human orexin 1 receptors [2]) of 2620 nM and a Ki (human orexin 2 receptors) of 674 nM.
Work on `Cc1cc(OCC(=O)NC(C)c2cnn(C)c2)nc2c1c(C1CC1)nn2C` (stereo not shown) [Example 7.20, 2-(3-cyclopropyl-1,4-dimethyl-1H-pyrazolo[3,4-b]pyridin-6-yloxy)-N-(1-(1-methyl-1H-pyrazol-4-yl)ethyl)acetamide] yielded an inhibition at 10 µM (human orexin 1 receptors [2]) of 34% and an inhibition at 10 µM (human orexin 2 receptors) of 31%.
`Cc1ccnc(C(C)NC(=O)COc2cc(C)c3c(C4CC4)nn(C)c3n2)c1` (stereo not shown) [Example 7.21, 2-(3-cyclopropyl-1,4-dimethyl-1H-pyrazolo[3,4-b]pyridin-6-yloxy)-N-(1-(4-methylpyridin-2-yl)ethyl)acetamide] was tested, and the inhibition at 10 µM (human orexin 1 receptors [2]) was < 10% and the inhibition at 10 µM (human orexin 2 receptors) was 22%.
Work on `Cc1csc(C(C)NC(=O)COc2cc(C)c3c(C4CC4)nn(C)c3n2)n1` (stereo not shown) [Example 7.22, 2-(3-cyclopropyl-1,4-dimethyl-1H-pyrazolo[3,4-b]pyridin-6-yloxy)-N-(1-(4-methylthiazol-2-yl)ethyl)acetamide] yielded an inhibition at 10 µM (human orexin 1 receptors [2]) of 40% and an inhibition at 10 µM (human orexin 2 receptors) of 32%.
For `Cc1cc(OCC(=O)NC(C)c2nc3ccccc3s2)nc2c1c(C1CC1)nn2C` (stereo not shown) [Example 7.23, N-(1-(benzo[d]thiazol-2-yl)ethyl)-2-(3-cyclopropyl-1,4-dimethyl-1H-pyrazolo[3,4-b]pyridin-6-yloxy)acetamide], the Ki (human orexin 1 receptors [2]) was 564 nM and the Ki (human orexin 2 receptors) was 150 nM.
With `Cc1cc(OCC(=O)NC2CCCc3c2cnn3C)nc2c1c(C1CC1)nn2C` (stereo not shown) [Example 7.24, 2-(3-cyclopropyl-1,4-dimethyl-1H-pyrazolo[3,4-b]pyridin-6-yloxy)-N-(1-methyl-4,5,6,7-tetrahydro-1H-indazol-4-yl)acetamide] the inhibition at 10 µM (human orexin 1 receptors [2]) was 28% and the inhibition at 10 µM (human orexin 2 receptors) was 25%.
`Cc1cc(OCC(=O)NC(C)c2cn3ccsc3n2)nc2c1c(C1CC1)nn2C` (stereo not shown) [Example 7.25, 2-(3-cyclopropyl-1,4-dimethyl-1H-pyrazolo[3,4-b]pyridin-6-yloxy)-N-(1-(imidazo[2,1-b]thiazol-6-yl)ethyl)acetamide] gave a Ki (human orexin 1 receptors [2]) of 1560 nM and a Ki (human orexin 2 receptors) of 584 nM.
`Cc1cc(OCC(=O)N[C@@H](C)CCc2ccccc2)nc2c1c(C1CC1)nn2C` [Example 7.26, (S)-2-(3-cyclopropyl-1,4-dimethyl-1H-pyrazolo[3,4-b]pyridin-6-yloxy)-N-(4-phenylbutan-2-yl)acetamide] showed a Ki (human orexin 1 receptors [2]) of 1640 nM and a Ki (human orexin 2 receptors) of 184 nM.
`COc1ccc(CNC(=O)COc2cc(C)c3c(C4CC4)nn(C)c3n2)c(OC)c1` [Example 7.27, 2-(3-cyclopropyl-1,4-dimethyl-1H-pyrazolo[3,4-b]pyridin-6-yloxy)-N-(2,4-dimethoxybenzyl)acetamide] was tested, and the inhibition at 10 µM (human orexin 1 receptors [2]) was 48% and the Ki (human orexin 2 receptors) was 472 nM.
`Cc1ccc2c(c1)C(NC(=O)COc1cc(C)c3c(C4CC4)nn(C)c3n1)CC2` (stereo not shown) [Example 7.28, 2-(3-cyclopropyl-1,4-dimethyl-1H-pyrazolo[3,4-b]pyridin-6-yloxy)-N-(6-methyl-2,3-dihydro-1H-inden-1-yl)acetamide] gave an inhibition at 10 µM (human orexin 1 receptors [2]) of 34% and an inhibition at 10 µM (human orexin 2 receptors) of 37%.
Work on `Cc1cccc(C(C)NC(=O)COc2cc(C)c3c(C4CC4)nn(C)c3n2)c1` (stereo not shown) [Example 7.29, 2-(3-cyclopropyl-1,4-dimethyl-1H-pyrazolo[3,4-b]pyridin-6-yloxy)-N-(1-m-tolylethyl)acetamide] yielded a Ki (human orexin 1 receptors [2]) of 1800 nM and a Ki (human orexin 2 receptors) of 900 nM.
Compound `Cc1cc(OCC(=O)NC(C)c2nc3ccc(Cl)cc3s2)nc2c1c(C1CC1)nn2C` (stereo not shown) [Example 7.30, N-(1-(6-chlorobenzo[d]thiazol-2-yl)ethyl)-2-(3-cyclopropyl-1,4-dimethyl-1H-pyrazolo[3,4-b]pyridin-6-yloxy)acetamide] has a Ki (human orexin 1 receptors [2]) of 938 nM and an inhibition at 10 µM (human orexin 2 receptors) of 26%.
In the case of `Cc1ccc2c(cnn2C)c1CNC(=O)COc1cc(C)c2c(C3CC3)nn(C)c2n1` [Example 7.31, 2-(3-cyclopropyl-1,4-dimethyl-1H-pyrazolo[3,4-b]pyridin-6-yloxy)-N-((1,5-dimethyl-1H-indazol-4-yl)methyl)acetamide], the Ki (human orexin 1 receptors [2]) is reported as 857 nM and the Ki (human orexin 2 receptors) is reported as 833 nM.
With `COc1cccc2c1CCCC2NC(=O)COc1cc(C)c2c(C3CC3)nn(C)c2n1` (stereo not shown) [Example 7.32, 2-(3-cyclopropyl-1,4-dimethyl-1H-pyrazolo[3,4-b]pyridin-6-yloxy)-N-(5-methoxy-1,2,3,4-tetrahydronaphthalen-1-yl)acetamide] the Ki (human orexin 1 receptors [2]) was 138 nM and the Ki (human orexin 2 receptors) was 301 nM.
With `CCOc1ccc(CNC(=O)COc2cc(C)c3c(C4CC4)nn(C)c3n2)cc1` [Example 7.33, 2-(3-cyclopropyl-1,4-dimethyl-1H-pyrazolo[3,4-b]pyridin-6-yloxy)-N-(4-ethoxybenzyl)acetamide] the Ki (human orexin 1 receptors [2]) was 3170 nM and the inhibition at 10 µM (human orexin 2 receptors) was 24%.
In the case of `Cc1cc(OCC(=O)NC(C)c2cnc3c(ccn3C)c2)nc2c1c(C1CC1)nn2C` (stereo not shown) [Example 8.1, 2-(3-cyclopropyl-1,4-dimethyl-1H-pyrazolo[3,4-b]pyridin-6-yloxy)-N-(1-(1-methyl-1H-pyrrolo[2,3-b]pyridin-5-yl)ethyl)acetamide], the Ki (human orexin 1 receptors [2]) is reported as 92 nM and the Ki (human orexin 2 receptors) is reported as 165 nM.
